According to ChEMBL document CHEMBL1201862, “PubChem BioAssay data set” (2004):
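These data come from cells grown in 96-well plates and exposed to compound for 48 hours at five concentrations. At the GI50, growth is halved.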 Activity calls are given as the source filed them. Cut-off read from the data, not from the text of the source: active = GI50 up to about 1.1 µM and inactive = higher.

How the values were obtained:
Assay in all cases: NCI anticancer screen, dose series, 48 h
EKVX = system: EKVX
MDA-N = system: MDA-N
SK-OV-3 = system: SK-OV-3
MCF7 = system: MCF7
UACC-62 = system: UACC-62
RXF 393 = system: RXF 393
HCT-15 = system: HCT-15
PC-3 = system: PC-3
OVCAR-3 = system: OVCAR-3
HOP-62 = system: HOP-62
IGROV-1 = system: IGROV-1
NCI-H226 = system: NCI-H226
M14 = system: M14
LOX IMVI = system: LOX IMVI
SNB-19 = system: SNB-19
NCI-H23 = system: NCI-H23
OVCAR-8 = system: OVCAR-8
SW-620 = system: SW-620
SNB-75 = system: SNB-75
SF-268 = system: SF-268

Measured: GI50

CC1(C)C(CC(=O)O)CCCC1CC(=O)O (stereo not drawn)
inactive: EKVX > 100 µM | MDA-N > 100 µM | SK-OV-3 > 100 µM | MCF7 > 100 µM | UACC-62 > 100 µM | RXF 393 > 100 µM | PC-3 > 100 µM | OVCAR-3 > 100 µM | HOP-62 > 100 µM | IGROV-1 > 100 µM | NCI-H226 55.5 µM | M14 > 100 µM | LOX IMVI > 100 µM | SNB-19 > 100 µM | NCI-H23 > 100 µM | OVCAR-8 > 100 µM | SW-620 > 100 µM
> 100 µM: HCT-15

C#CCN1CCN(C(=S)N/N=C(\C)c2ccccn2)CC1
0.01 µM: HCT-15
active: EKVX 0.0792 µM | SK-OV-3 0.877 µM | SF-268 0.889 µM | MCF7 0.01 µM | UACC-62 0.0252 µM | RXF 393 0.465 µM | PC-3 0.00975 µM | OVCAR-3 < 0.057 µM | HOP-62 0.363 µM | IGROV-1 0.01 µM | M14 0.0263 µM | LOX IMVI 0.01 µM | NCI-H23 0.01 µM | OVCAR-8 0.01 µM | SW-620 0.0262 µM
inactive: MDA-N 1.46 µM | SNB-75 4.86 µM | NCI-H226 1.19 µM | SNB-19 2.99 µM

COc1cccc2c1[C@H](OC)[C@]13O[C@@]1(C2=O)[C@H](O)[C@H](C)[C@@](O)(C(=O)[C@@H]1O[C@H]1C)[C@@H]3O
active: EKVX 0.187 µM | MDA-N 0.265 µM | SK-OV-3 0.21 µM | SF-268 0.246 µM | MCF7 0.294 µM | UACC-62 0.298 µM | RXF 393 0.245 µM | PC-3 0.266 µM | OVCAR-3 0.276 µM | HOP-62 0.232 µM | IGROV-1 0.229 µM | NCI-H226 0.335 µM | LOX IMVI 0.237 µM | NCI-H23 0.196 µM | OVCAR-8 0.217 µM | SW-620 0.21 µM
0.255 µM: HCT-15

O=C(O)[C@H](Cc1ccccc1)NCCN1CCC[C@H]1C(=O)O
22.2 µM: HCT-15
inactive: MDA-N > 100 µM | SK-OV-3 > 100 µM | SF-268 > 100 µM | MCF7 > 100 µM | UACC-62 70.8 µM | RXF 393 > 100 µM | PC-3 > 100 µM | OVCAR-3 > 100 µM | HOP-62 > 100 µM | M14 > 100 µM | SNB-19 > 100 µM | NCI-H23 > 100 µM | OVCAR-8 > 100 µM | SW-620 80.4 µM

Nc1nc(N)c2cc(-c3ccccc3)cnc2n1
27.4 µM: HCT-15
inactive: EKVX 16.9 µM | MDA-N 9.86 µM | SK-OV-3 81.1 µM | SNB-75 3.61 µM | SF-268 2.75 µM | MCF7 16.3 µM | RXF 393 8.65 µM | PC-3 8 µM | OVCAR-3 18.2 µM | HOP-62 17 µM | IGROV-1 12.9 µM | NCI-H226 16.5 µM | M14 12.9 µM | LOX IMVI 12.4 µM | SNB-19 18.2 µM | NCI-H23 12.9 µM | OVCAR-8 15.4 µM | SW-620 9.84 µM

COc1ccc(C[N+]23C(CC[C@H]2c2ccccc2)CC[C@H]3c2ccccc2)cc1 (stereo partly drawn)
inactive: EKVX 15.4 µM | MDA-N 13.2 µM | SK-OV-3 29.5 µM | SNB-75 18.3 µM | SF-268 30.3 µM | MCF7 14.7 µM | RXF 393 13.8 µM | PC-3 20 µM | OVCAR-3 6.04 µM | HOP-62 21 µM | IGROV-1 10.9 µM | NCI-H226 14.1 µM | M14 12.9 µM | LOX IMVI 16.6 µM | SNB-19 27.2 µM | OVCAR-8 22.9 µM | SW-620 28.2 µM

CC(C)CCC[C@@H](C)C1CCC2[C@@H]3CCC4CC(CCC=C(c5cc(Cl)c(OC(=O)c6ccccc6)c(C(=O)O)c5)c5cc(Cl)c(OC(=O)c6ccccc6)c(C(=O)O)c5)CC[C@]4(C)C3CC[C@@]21C (stereo partly drawn)
inactive: EKVX 88.3 µM | MDA-N > 100 µM | SK-OV-3 > 100 µM | SNB-75 > 100 µM | MCF7 > 100 µM | UACC-62 > 100 µM | RXF 393 > 100 µM | PC-3 > 100 µM | OVCAR-3 74.8 µM | HOP-62 > 100 µM | IGROV-1 34.8 µM | NCI-H226 85.7 µM | M14 15.8 µM | SNB-19 > 100 µM | NCI-H23 > 100 µM | OVCAR-8 > 100 µM | SW-620 > 100 µM
46.1 µM: HCT-15

Cn1cc(NC(=O)Nc2cc(C(=O)Nc3cc(C(=O)Nc4cc(S(=O)(=O)O)c5cc(S(=O)(=O)O)cc(S(=O)(=O)O)c5c4)n(C)c3)n(C)c2)cc1C(=O)Nc1cc(C(=O)Nc2cc(S(=O)(=O)O)c3cc(S(=O)(=O)O)cc(S(=O)(=O)O)c3c2)n(C)c1
> 100 µM: HCT-15
inactive: EKVX 31.9 µM | MDA-N > 100 µM | SK-OV-3 > 100 µM | SNB-75 50.1 µM | SF-268 > 100 µM | MCF7 > 100 µM | UACC-62 > 100 µM | RXF 393 > 100 µM | PC-3 > 100 µM | OVCAR-3 > 100 µM | HOP-62 > 100 µM | IGROV-1 5.64 µM | NCI-H226 > 100 µM | M14 > 100 µM | SNB-19 > 100 µM | NCI-H23 > 100 µM | OVCAR-8 > 100 µM | SW-620 > 100 µM

N#Cc1c(-c2ccc(Cl)cc2)c(C#N)c(=O)n(NS(=O)(=O)c2ccccc2)c1-c1ccccc1
inactive: MDA-N > 25 µM | SK-OV-3 > 25 µM | MCF7 19.8 µM | UACC-62 > 25 µM | RXF 393 > 25 µM | PC-3 > 25 µM | HOP-62 > 25 µM | M14 > 25 µM | LOX IMVI > 25 µM | SNB-19 > 25 µM | SW-620 > 25 µM
> 25 µM: HCT-15

CO[C@H]1/C=C/O[C@@]2(C)Oc3c(C)c(O)c4c(O)c(c(/C=N/N5CCN(C)CC5)c(O)c4c3C2=O)NC(=O)/C(C)=C\C=C\[C@H](C)[C@H](O)[C@@H](C)[C@@H](O)[C@@H](C)[C@H](OC(C)=O)[C@@H]1C [RIFAMPIN]
inactive: EKVX > 100 µM | MDA-N > 100 µM | SK-OV-3 > 100 µM | MCF7 > 100 µM | UACC-62 > 100 µM | RXF 393 > 100 µM | PC-3 81.5 µM | OVCAR-3 24.8 µM | HOP-62 > 100 µM | IGROV-1 73.6 µM | M14 62.1 µM | OVCAR-8 > 100 µM | SW-620 > 100 µM

Nn1c(S)nnc1CCCCCCCCc1nnc(S)n1N
> 100 µM: HCT-15
inactive: EKVX > 100 µM | MDA-N > 100 µM | SK-OV-3 > 100 µM | SNB-75 > 100 µM | SF-268 > 100 µM | MCF7 > 100 µM | UACC-62 > 100 µM | RXF 393 > 100 µM | PC-3 > 100 µM | OVCAR-3 > 100 µM | HOP-62 > 100 µM | IGROV-1 > 100 µM | NCI-H226 > 100 µM | M14 > 100 µM | SNB-19 > 100 µM | NCI-H23 > 100 µM | OVCAR-8 > 100 µM | SW-620 > 100 µM

CCN1CCN(c2nc3ccccc3nc2C(=O)c2ccc(OC)cc2)CC1
inactive: EKVX 47.1 µM | MDA-N 32.1 µM | SK-OV-3 > 100 µM | SNB-75 37.2 µM | SF-268 29.4 µM | MCF7 7.1 µM | UACC-62 20.6 µM | RXF 393 12.4 µM | PC-3 78 µM | OVCAR-3 69.7 µM | HOP-62 16 µM | IGROV-1 75.9 µM | M14 15 µM | LOX IMVI 24.8 µM | SNB-19 90.2 µM | NCI-H23 27 µM | OVCAR-8 60.7 µM | SW-620 30.3 µM
49.4 µM: HCT-15

O=c1[nH]nc(-c2cccc(Br)c2)[nH]1
> 100 µM: HCT-15
inactive: EKVX 2.48 µM | MDA-N > 100 µM | SNB-75 43.3 µM | SF-268 > 100 µM | MCF7 > 100 µM | UACC-62 > 100 µM | RXF 393 > 100 µM | PC-3 > 100 µM | OVCAR-3 > 100 µM | HOP-62 > 100 µM | IGROV-1 > 100 µM | NCI-H226 > 100 µM | M14 > 100 µM | LOX IMVI > 100 µM | SNB-19 > 100 µM | NCI-H23 > 100 µM | OVCAR-8 > 100 µM | SW-620 > 100 µM

COC(=O)c1cc2ccc(N)nc2[nH]c1=O
> 100 µM: HCT-15
inactive: EKVX > 100 µM | MDA-N > 100 µM | SK-OV-3 > 100 µM | SNB-75 > 100 µM | SF-268 > 100 µM | MCF7 > 100 µM | RXF 393 > 100 µM | PC-3 > 100 µM | OVCAR-3 > 100 µM | HOP-62 > 100 µM | IGROV-1 > 100 µM | NCI-H226 > 100 µM | M14 > 100 µM | LOX IMVI > 100 µM | SNB-19 > 100 µM | NCI-H23 > 100 µM | OVCAR-8 > 100 µM | SW-620 > 100 µM

CCOC(=O)C1(F)S(=O)(=O)OCCOS1(=O)=O
inactive: EKVX > 100 µM | MDA-N > 100 µM | SK-OV-3 > 100 µM | SNB-75 > 100 µM | SF-268 > 100 µM | MCF7 > 100 µM | UACC-62 > 100 µM | RXF 393 > 100 µM | PC-3 > 100 µM | OVCAR-3 > 100 µM | HOP-62 > 100 µM | NCI-H226 > 100 µM | M14 > 100 µM | LOX IMVI > 100 µM | SNB-19 > 100 µM | NCI-H23 > 100 µM | OVCAR-8 > 100 µM | SW-620 > 100 µM
> 100 µM: HCT-15
